Measured values as given in patent publication US20160152540A1, “NEW PROCESS FOR THE MAINTAINING OF A RATIO OF ISOMERS OF CAROTENOID COMPOUNDS” (DSM IP ASSETS B.V., priority 2013, published 2016).

Experiment: Stability of the astaxanthin stereoisomer ratio (all-E form) in chloroform at 40° C., measured spectrophotometrically at 478 nm
Conditions: tempered at 40° C., stored, sampled periodically
Procedure: The solution was homogenized and the formulation was tempered at 40° C. The solution was stored and samples were taken periodically and the concentration of astaxanthin was measured spectrophotometrically at 478 nm.

Row | Structure (SMILES) | stabilisation of the all-E-form / ratio of stereoisomers of astaxanthin (FIG. 1 and FIG. 2)
1 | CC(=O)[O-].[K+] [CH3COOK, potassium acetate] | stabilises the all-E-form better than K2CO3
2 | CC1=C(/C=C/C(C)=C/C=C/C(C)=C/C=C/C=C(C)/C=C/C=C(C)/C=C/C2=C(C)C(=O)[C@@H](O)CC2(C)C)C(C)(C)C[C@H](O)C1=O [astaxanthin] | the ratio is deteriorating usually
